In the supplement of paper PMC10307832:

Each cell line was assayed with C(C(=O)C(=O)O)Br [Bromopyruvate] + COc1cccc2cc(-c3nc([C@H]4CC[C@H](C(=O)O)CC4)n4ncnc(N)c34)[nH]c12 [OSI-027] (partner 0.5 µM) (assay: relative viability (nuclei count vs DMSO), 5 days (fraction); higher = more cells survive). Settings: first compound 1 µM.
Summary of the method: (§1)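 Lung cancer cell lines in 1536-well plates got either a single drug or a fixed anchor-drug dose together with five library-drug doses (not always all listed) in √10 steps, by pin tool, on the day after seeding. Nuclei were counted after 5 days, and relative viability is the treated-to-vehicle ratio of nuclei counts. Values are medians of duplicate plates.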
With ABC-1 the relative viability was 0.425. NCI-H358 gave a relative viability of 0.813. Work on NCI-H661 yielded a relative viability of 0.719. For RERF-LC-KJ, the relative viability was 0.614.

Same assay, conditions: first compound 3.162 µM
In the case of ABC-1, the relative viability is reported as 0.471. NCI-H358 gave a relative viability of 0.758. Cell Line NCI-H661 has a relative viability of 0.67. With RERF-LC-KJ the relative viability was 0.607.

Same assay, conditions: first compound 10 µM
ABC-1 showed a relative viability of 0.513. In the case of NCI-H358, the relative viability is reported as 0.956. NCI-H661 showed a relative viability of 0.685. For RERF-LC-KJ, the relative viability was 0.6.

Same assay, conditions: first compound 31.62 µM
For ABC-1, the relative viability was 0.521. NCI-H358 was tested, and the relative viability was 0.769. With NCI-H661 the relative viability was 0.64. RERF-LC-KJ gave a relative viability of 0.516.

Same assay, conditions: first compound 100 µM
Work on ABC-1 yielded a relative viability of 0.548. In the case of NCI-H358, the relative viability is reported as 0.797. Cell Line NCI-H661 has a relative viability of 0.749. In the case of RERF-LC-KJ, the relative viability is reported as 0.54.

These cell lines were tested with CC(O)(CS(=O)(=O)c1ccc(F)cc1)C(=O)Nc1ccc(C#N)c(C(F)(F)F)c1 [Bicalutamide] + N=C(N)NC(=N)NCCc1ccccc1 [Phenformin] (partner 250 µM) in the same assay as above. Settings: first compound 0.08 µM.
Summary of the method: as §1
For ABC-1, the relative viability was 0.26. In the case of NCI-H358, the relative viability is reported as 0.336. NCI-H661 showed a relative viability of 0.289. RERF-LC-KJ gave a relative viability of 0.406.

Same assay, conditions: first compound 0.253 µM
For ABC-1, the relative viability was 0.229. NCI-H358 showed a relative viability of 0.344. NCI-H661 gave a relative viability of 0.284. RERF-LC-KJ was tested, and the relative viability was 0.396.

Same assay, conditions: first compound 0.8 µM
For ABC-1, the relative viability was 0.253. NCI-H358 was tested, and the relative viability was 0.401. Work on NCI-H661 yielded a relative viability of 0.289. RERF-LC-KJ was tested, and the relative viability was 0.431.

Same assay, conditions: first compound 2.53 µM
Work on ABC-1 yielded a relative viability of 0.212. NCI-H358 gave a relative viability of 0.35. NCI-H661 showed a relative viability of 0.251. In the case of RERF-LC-KJ, the relative viability is reported as 0.336.

What follows are cell lines tested with C(C(=O)C(=O)O)Br [Bromopyruvate] + CC(=O)c1c(C)c2cnc(Nc3ccc(N4CCNCC4)cn3)nc2n(C2CCCC2)c1=O [Palbociclib] (partner 0.5 µM) in the same assay as above. Settings: first compound 1 µM.
Summary of the method: as §1
In the case of ABC-1, the relative viability is reported as 0.662. NCI-H358 was tested, and the relative viability was 0.113. NCI-H661 showed a relative viability of 0.401. RERF-LC-KJ was tested, and the relative viability was 1.04.

Same assay, conditions: first compound 3.162 µM
NCI-H358 gave a relative viability of 0.132. Cell Line NCI-H661 has a relative viability of 0.387. RERF-LC-KJ gave a relative viability of 1.18.

Same assay, conditions: first compound 10 µM
In the case of NCI-H358, the relative viability is reported as 0.168. In the case of NCI-H661, the relative viability is reported as 0.378. RERF-LC-KJ gave a relative viability of 1.19.

Same assay, conditions: first compound 31.62 µM
Work on NCI-H358 yielded a relative viability of 0.127. NCI-H661 gave a relative viability of 0.403. Work on RERF-LC-KJ yielded a relative viability of 1.14.

Same assay, conditions: first compound 100 µM
ABC-1 gave a relative viability of 0.792. NCI-H358 showed a relative viability of 0.142. With NCI-H661 the relative viability was 0.428. For RERF-LC-KJ, the relative viability was 0.966.

These cell lines were tested with C(C(=O)C(=O)O)Br [Bromopyruvate] + N=C(N)NC(=N)NCCc1ccccc1 [Phenformin] (partner 250 µM) in the same assay as above. Settings: first compound 1 µM.
Summary of the method: as §1
For ABC-1, the relative viability was 0.24. Work on NCI-H358 yielded a relative viability of 0.406. In the case of NCI-H661, the relative viability is reported as 0.294. With RERF-LC-KJ the relative viability was 0.4.

Same assay, conditions: first compound 3.162 µM
For ABC-1, the relative viability was 0.262. NCI-H358 was tested, and the relative viability was 0.327. NCI-H661 gave a relative viability of 0.263. For RERF-LC-KJ, the relative viability was 0.438.

Same assay, conditions: first compound 10 µM
With ABC-1 the relative viability was 0.271. NCI-H358 showed a relative viability of 0.351. With NCI-H661 the relative viability was 0.237. For RERF-LC-KJ, the relative viability was 0.514.

Same assay, conditions: first compound 31.62 µM
ABC-1 was tested, and the relative viability was 0.262. Work on NCI-H358 yielded a relative viability of 0.304. With NCI-H661 the relative viability was 0.287. For RERF-LC-KJ, the relative viability was 0.429.

Same assay, conditions: first compound 100 µM
In the case of ABC-1, the relative viability is reported as 0.239. Cell Line NCI-H358 has a relative viability of 0.315. NCI-H661 showed a relative viability of 0.276. For RERF-LC-KJ, the relative viability was 0.416.
